According to patent publication EP0034481A1, “2-Methyl-5-thiazole-methylamine and carboxamide derivatives” (Grigg, Ronald Ernest, priority 1980, dated 1981):

How the values were obtained:
[1] = system: guinea pig ileum; assay: Peripheral activity: contraction of the guinea pig ileum, relative to nicotine; type: cell-based
Protocol: Peripheral activity was determined by contraction of the guinea pig ileum/frog rectus while central nervous system activity was determined by adhesion to specific cell receptor surfaces.

[2] = Solubility in solvents (qualitative); type: physicochemical
[3] = LD50 (acute toxicity); details: in vivo
[4] = system: Diazepam cell receptor; assay: Central nervous system activity: adhesion to specific cell receptor surfaces (diazepam cell receptor); type: binding
Protocol: Various compounds of this invention have been tested for their biological activity. Peripheral activity was determined by contraction of the guinea pig ileum/frog rectus while central nervous system activity was determined by adhesion to specific cell receptor surfaces.

soluble in dilute hydrochloric acid [2] | soluble in ethanol [2] | soluble in water [2] | soluble in chloroform ([2]; chloroform) | soluble in polyethylene glycol ([2]; polyethylene glycol) | Structure (SMILES) | Guinea Pig ileum test (% wrt nicotine) [1] [% wrt nicotine] | LD50 [3] [mg/kg] | Diazepam cell receptor adhesion [4] [mM]
– | – | soluble | – | – | Cc1nnc(C(=O)N2CCOCC2)o1 [Example 13, 5-methyl-2-(morpholinocarbonyl)oxadiazole] | – | – | –
– | soluble | soluble | – | – | Cc1ncc(C(=O)N2CCCCC2)s1 [Example 2, 2-methyl-5-(piperidincrcarbonyl)thiazole] | – | – | 0.49
– | soluble | soluble | – | – | Cc1ncc(C(=O)N2CCCC2)s1 [Example 1, 2-Methyl-5-(pyrrolidinocarbonyl)thiazole] | – | – | 0.55
soluble | soluble | soluble | – | – | Cc1ncc(CN2CCOCC2)s1 [Example 20, 2-methyl-5-(morpholinomethyl)thiazole] | – | – | 11
soluble | soluble | soluble | – | – | Cc1ncc(C(=O)N2CCOCC2)s1 [Example 3, 2-methyl-S-(morpholinocarbonyl)thiazole] | – | – | 1.0

The next lines start with the compound.

Structure (SMILES) | soluble in dilute hydrochloric acid [2] | soluble in ethanol [2] | soluble in water [2] | soluble in chloroform ([2]; chloroform) | soluble in polyethylene glycol ([2]; polyethylene glycol) | Guinea Pig ileum test (% wrt nicotine) [1] [% wrt nicotine] | LD50 [3] [mg/kg] | Diazepam cell receptor adhesion [4] [mM]
Cc1ncc(C(=O)NC23CC4CC(CC(C4)C2)C3)s1 [Example 7, N-adamantyl 2-methyl-5-thiazolecarboxamide] | soluble | soluble | soluble | – | – | 0 | – | –
CCN(CC)Cc1cnc(C)s1 [Example 21, 2-methyl-5-(diethylaminomethyl)thiazole] | – | soluble | soluble | – | – | – | 80 to 100 | 5.5
Cc1ncc(C(=O)N2CCN(C(=O)c3cnc(C)s3)CC2)s1 [Example 5, N,N'-bis(2-methyl-5-thiazolecarbonyl)piperazine] | – | – | – | soluble | soluble | – | – | –
c1ccc(-c2ncc(CN3CCCC3)s2)cc1 [Example 17, 2-phenyl-5-(pyrroli-dinomethyl)thiazole] | soluble | soluble | – | – | – | – | – | –
Cc1ncc(CN2CCCCC2)s1 [Example 19, 2-methyl-S-(piperidinomethyl)thiazole] | – | soluble | soluble | – | – | – | 7 to 8 | 1.0
c1ccc(-c2ncc(CN3CCCCC3)s2)cc1 [Example 24, 2-phenyl-(5-piperidinomethyl)thiazole] | soluble | soluble | – | – | – | – | – | –
Cc1nnc(C(=O)N2CCCC2)o1 [Example 12, 5-methyl-2-(pyrrolidinocarbonyl)oxadiazole] | – | – | soluble | – | – | – | – | –
CCN(CC)C(=O)c1cnc(C)s1 [Example 6, N,N-diethyl 2-methyl-5-thiazolecarboxamide] | – | soluble | soluble | – | – | – | – | 3.2
Cc1nnc(C(=O)N2CCCCC2)o1 [Example 11, 2-methyl-5-(piperidinocarbonyl)oxadiazole] | – | – | soluble | – | – | – | – | –
Cc1ncc(CN2CCCC2)s1 [Example 18, 2-methyl-5-(pyrrolidinomethyl)thiazole] | – | soluble | soluble | – | – | – | 7 to 8 | 4.4
